Test results: article PMC7287882, “Dual miRNases for Triple Incision of miRNA Target: Design Concept and Catalytic Performance” (Molecules, 2020)

Key:
[1] = tested on: miR-21; assay: Gel-retardation assay, hybridization with miR-21; format: binding; details: 37 °C, 45 min, mean of 3
Source text: (§1) We carried out a comparative analysis of the hybridization properties of the developed DCs with the corresponding SCs, which were the products of the first stage of the DCs synthesis. As discussed above, each SC consisted of the corresponding oligonucleotide A, which was complementary to the 5′-region of the matching miRNA target, and the catalytic peptide [LRLRG]2, attached to the 5′-end of this oligonucleotide via a thiohexyl linker (linker 2). […] Indeed, the level of binding of DCs to their miRNA targets reached 96, 90, 75, 55% at equimolar concentration (1 μM), and 99, 96, 92 and 69% at 5-fold excess of DCs over miR-17, miR-18a, miR-21 and miR-155, respectively (Figure 2). […]
(§2) The reaction mixture (4 µL) containing 50 mM Tris-HCl, pH 7.0, 200 mM KCl and 1 mM EDTA, 100 cpm (Cherenkov’s counting) of [^32P]-miRNA, 1 μM unlabeled miRNA, a conjugate at a concentration ranging from 0.1 to 10 μM was incubated at 37 °C for 45 min and quenched by adding of a loading buffer (20% ficoll, 0.025% bromophenol blue, 0.025% xylene cyanol). […] Formation of the complex miRNA/conjugate was analyzed by electrophoresis in 15% native PAAG at 4 °C. The gels were analyzed using Molecular Imager FX. The extent of binding of conjugate to miRNA was determined as a ratio of radioactivity measured in the complex to the total radioactivity applied onto the gel lane.

[2] = tested on: miR-21; assay: Ribonuclease activity assay with DC or ON and RNase H, miR-21; format: biochemical
Procedure: (§3) It is known that DNA-like antisense oligonucleotides after binding to target RNAs form a substrate for intracellular endonuclease RNases H. RNA hydrolysis in RNA-DNA heteroduplex by RNase H1 occurs at a distance of 6–10 nucleotides from the 5′-end of RNA (approximately one turn of the helix). Our design of the Dual conjugates here was carried out in such a way to ensure that their heteroduplexes with the matching miRNA sequences could serve as potential substrates for RNase H. To achieve that, we ensured that the length of the oligonucleotide recognition motifs A and B within the DC was 8–10 nt, which was expected to be sufficient for interaction and cleavage by RNase H (see Figure 1 and Table 1). As indicated above, a few adenine aromatic basis within each recognition motifs A and B were replaced with 2-aminoadenines to enhance the hybridization ability of the DC with miRNA. […] In order to verify this, as well as to evaluate the ability of RNase H to contribute to the miRNA cleavage catalyzed by DC, we studied the kinetics of the target miRNA cleavage performed (1) by the DC alone; (2) by RNase H, when the target miRNA was hybridized with the nonconjugated Dual oligonucleotide (ON); and (3) by both DC and RNase H present in the same reaction mixture. The study was performed against miR-17, miR-155 and miR-21 using a 20-fold excess of DCs or respective oligonucleotides over the matching miRNA (see Table 1 for sequences).
Figure 6 Cleavage kinetics of 5′-[^32P]-labeled miRNAs by DCs and/or RNase H. (a,d,g). Radioautographs of 18% denaturing PAAG showing the profiles of cleavage of miR-17, miR-155 and miR-21, respectively. Duplexes formed by 5′-[^32P]-miRNA (1 µM) and DC or ON (20 µM) were incubated at 37 °C for 48–72 h. RNase H was taken in the concentration of 5 or 100 u/mL. Lanes Im and T1–imidazole ladder and partial RNA digestion with RNase T1, respectively; control–RNA was incubated in the absence of DC or ON and in the presence of RNase H (100 u/mL); (b,e,h) Time dependency of cleavage of miR-17, miR-155 and miR-21, respectively, by DCs and/or RNase H. Data are presented as mean ± s.e. *—indicates statistically significant difference with p < 0.05; (c,f,i). […]
(§4) The reaction mixture (10 µL) containing 20 mM Tris-HCl, pH 7.8, 40 mM KCl, 8 mM MgCl2, 1 mM DTT, 0.02 mg/mL BSA, 800 cpm (Cherenkov’s counting) of [^32P]-miRNA, 1 µM unlabeled miRNA, 20 µM either DC or Dual oligonucleotide was incubated at 37 °C for 20 min then RNase H (5 or 100 U/mL) was added and the mixture was further incubated for 48 h. Aliquots were taken at 0, 1, 6, 24 and 48 h then the reaction was quenched, RNA cleavage products were collected and analyzed as described above.

[3] = tested on: miR-155; assay: Gel-retardation assay, hybridization with miR-155; format: binding; details: 37 °C, 45 min, mean of 3
Source text: as §1, §2

[4] = tested on: miR-155; assay: Ribonuclease activity assay with DC or ON and RNase H, miR-155; format: biochemical
Procedure: as §3
Figure 6 Cleavage kinetics of 5′-[^32P]-labeled miRNAs by DCs and/or RNase H. (a,d,g). […]
as §4

[5] = 5-fold excess of DC over miRNA (1 µM), same buffer
[6] = equimolar, DC 1 µM : miRNA 1 µM, 50 mM Tris-HCl pH 7.0, 200 mM KCl, 1 mM EDTA

Substance | level of binding of DC to miRNA target [1, 5] [%] | level of binding of DC to miRNA target [1, 6] [%] | increase in rate of cleavage by DC in the presence of RNase H ([2]; RNase H 5 u/mL, versus DC alone) [fold] | total extent of cleavage by DC and RNase H ([2]; RNase H 5 u/mL, miRNA 1 µM, DC 20 µM, buffer (2), 37 °C) [%] | increase in rate of cleavage compared with DC alone ([2]; RNase H 100 u/mL) [fold] | cleavage by DC and RNase H ([2]; RNase H 100 u/mL, completed in the first hour of incubation) [%] | level of binding of DC to miRNA target [3, 5] [%] | level of binding of DC to miRNA target [3, 6] [%] | maximum extent of cleavage with DC and RNase H relative to DC alone [4] | total extent of cleavage in the complex with DC relative to the miRNA/ON complex ([4]; RNase H 5 u/mL) [fold] | maximum extent of cleavage with DC and RNase H ([4]; miRNA 1 µM, DC 20 µM, buffer (2), 37 °C, plateau) [%]
TCAACATC–linker 1–[GRLRL]2–linker 2–GATAAGCTA [miRNA-21-DC, Dual oligonucleotide-peptide conjugate targeted to miR-21: catalytic peptide [LRLRG]2 between two 2-aminoadenine-containing oligodeoxyribonucleotides] | 92 | 75 | 4 | 40 | 20 | 100 | – | – | – | – | –
ACCCCTAT–linker 1–[GRLRL]2–linker 2–TTAGCATTAA [miRNA-155-DC, Dual oligonucleotide-peptide conjugate targeted to miR-155: catalytic peptide [LRLRG]2 between two 2-aminoadenine-containing oligodeoxyribonucleotides] | – | – | – | – | – | – | 69 | 55 | about 2 fold | ~1.5 | 75
